Tests used:
Assay type in all cases: cell-based
[1] = molecular target: T1, Smo wild type (Homo sapiens, UniProt Q99835); experiment: Reporter assay of C3H10T1/2-Gli-Luc cells transfected with wild-type Smo, without SAG; details: C3H10T1/2 cells transfected with pLPCX-SMO, no SAG, 48 hr; read-out: Inhibition of C3H10T1/2-Gli-Luc-Smo-WT [IC50
T1 construct: expressed in transfected cells; host or cells: C3H10T1/2 cells (ATCC CCL-226), transient transfection with pLPCX-SMO
Protocol: (§1) A transient transfection system with a Smo wild type or a Smo D473H mutant was also used for compound screening. For the SMO inhibition experiments, cells were transfected with an additional 500 ng/well of wild-type or D473H-mutant type SMO construct (pLPCX-SMO or pLPCX-SMO-D473H). After 24 h, transfected cells were collected by trypsin treatment and re-plated in 96-well plates in an RPMI medium containing 0.5% FBS with a density of 1.5×10^4 cells/well. Compounds were dissolved in DMSO with serial dilutions and were then added to the assay plate. The assay plates were incubated at 37° C. for 48 hr.
(§2) Firefly luciferase and Renilla luciferase activity was determined using the Dual-Glo Luciferase reporter assay system (Promega) with a Victor3 plate reader (PerkinElmer Life Sciences). Firefly luciferase readings were normalized to Renilla luciferase to correct for transfection efficiency. Luminance reading for the C3H10T1/2-Gli-Luc assay was normalized based on DMSO control with SAG stimulation (100% pathway activity) and without SAG stimulation (0% pathway activity). IC50 values, defined as the inflection point of the logistic curve, were determined by nonlinear regression using the Prism 5 software (GraphPad).
(§3) The reporter assay of C3H10T1/2-Gli-Luc cells transfected with a wild-type, D473H mutant Smo mutant was carried out with the same protocol but without SAG stimulation. Luminance reading for the SMO inhibition experiments assay was normalized based on DMSO control (100% of the pathway activity) and a known Smo antagonist (ALLO-2 at 10 μM, 0% of the pathway activity).

[2] = tested on: hedgehog pathway (pGL3-7xGli-Luciferase reporter in C3H10T1/2 cells); experiment: Transient transfection of C3H10T1/2 and Gli-Luc reporter assay with SAG stimulation; details: Mus musculus, C3H 10T1/2, SAG 20 nM, 48 hr, read-out: Inhibition of Gli-Luc expression [IC50
Protocol: A cell-based screen for inhibitors of the hedgehog pathway was performed using a transient transfection system in C3H10T1/2 cells with pGL3-7xGli-Luciferase reporter plasmids C3H10T1/2 cells (ATCC, cat.#CCL-226) were seeded into 6-well plates at 8×10^4 cells/well in a BME medium containing 10% heat-inactivated FBS. Cells were transfected the next morning with 500 ng/well pGL3-7xGli-Luciferase reporter plasmids and 100 ng/well pRL-TK Renilla luciferase reporter plasmids (Promega)using GeneJuice transfection reagent (Novagene). After 24 h, transfected cells were collected by trypsin treatment and re-plated in 96-well plates in an RPMI medium containing 0.5% FBS with a density of 1.5×10^4 cells/well. Compounds were dissolved in DMSO with serial dilutions and were then added to the assay plate. SAG (Hh-Ag 1.3) (Santa Cruz) was added to the assay plated for a final concentration 20 nM. The assay plates were incubated at 37° C. for 48 hr.
as §2

[3] = molecular target: T2, Smo D473H mutant (Homo sapiens, UniProt Q99835, D473H); experiment: Reporter assay of C3H10T1/2-Gli-Luc cells transfected with Smo D473H mutant, without SAG; details: C3H10T1/2 cells transfected with pLPCX-SMO-D473H, no SAG, 48 hr; read-out: Inhibition of C3H10T1/2-Gli-Luc-Smo-D473H [IC50
T2 construct: expressed in transfected cells; host or cells: C3H10T1/2 cells (ATCC CCL-226), transient transfection with pLPCX-SMO-D473H
Protocol: as §1, §2, §3

T1 sequence (Q99835 28-787): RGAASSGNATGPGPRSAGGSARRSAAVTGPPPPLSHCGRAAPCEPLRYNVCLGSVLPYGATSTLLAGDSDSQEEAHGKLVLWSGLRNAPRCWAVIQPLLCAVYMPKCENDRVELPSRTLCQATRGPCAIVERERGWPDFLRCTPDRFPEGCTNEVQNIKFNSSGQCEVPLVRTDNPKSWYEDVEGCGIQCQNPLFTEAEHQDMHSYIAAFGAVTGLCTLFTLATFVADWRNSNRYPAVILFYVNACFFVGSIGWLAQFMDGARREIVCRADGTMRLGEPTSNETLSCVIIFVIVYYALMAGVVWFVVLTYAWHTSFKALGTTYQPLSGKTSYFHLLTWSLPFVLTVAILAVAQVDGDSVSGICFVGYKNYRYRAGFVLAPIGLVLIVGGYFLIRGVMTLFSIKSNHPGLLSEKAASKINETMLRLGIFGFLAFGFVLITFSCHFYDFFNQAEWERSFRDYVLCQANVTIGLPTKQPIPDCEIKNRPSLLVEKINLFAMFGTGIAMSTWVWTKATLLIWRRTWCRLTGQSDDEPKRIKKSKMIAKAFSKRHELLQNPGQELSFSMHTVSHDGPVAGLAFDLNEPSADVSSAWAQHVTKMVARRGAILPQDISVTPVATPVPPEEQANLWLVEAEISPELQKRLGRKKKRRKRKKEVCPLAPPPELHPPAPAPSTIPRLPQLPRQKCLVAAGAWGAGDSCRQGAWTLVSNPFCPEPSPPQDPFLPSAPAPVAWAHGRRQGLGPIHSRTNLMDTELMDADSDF
T2 sequence (Q99835 28-787 D473H): as the sequence (Q99835 28-787) above, with D446H counted along it

Row | IC50 [1] | IC50 [2] | IC50 [3] | Structure (SMILES)
1 | < 100 nM | < 100 nM | 100 to 1000 nM | CCN(CC)Cc1ccc(C)c(NC(=O)c2ccc(Nc3ncc(SC)c(-c4ccc(OC(F)(F)F)cc4)n3)nc2)c1 [Compound 66, N-(5-Diethylaminomethyl-2-methyl-phenyl)-6-[5-methylsulfanyl-4-(4-trifluoromethoxy-phenyl)-pyrimidin-2-ylamino]-nicotinamide]
2 | < 100 nM | < 100 nM | 100 to 1000 nM | CSc1cnc(Nc2ccc(C(=O)Nc3cc(CN4CCOCC4)ccc3C)cc2)nc1-c1ccncc1 [Compound 26, N-(2-Methyl-5-morpholin-4-ylmethyl-phenyl)-4-(5-methylsulfanyl-4-pyridin-4-yl-pyrimidin-2-ylamino)-benzamide]
3 | 100 to 1000 nM | 100 to 1000 nM | 100 to 1000 nM | CSc1cnc(Nc2ccc(C(=O)Nc3ccc(C(F)(F)F)c(Cl)c3)cc2)nc1-c1ccc(C#N)cc1 [Compound 4, N-(3-Chloro-4-trifluoromethyl-phenyl)-4-[4-(4-cyano-phenyl)-5-methylsulfanyl-pyrimidin-2-ylamino]-benzamide]
4 | < 100 nM | < 100 nM | 100 to 1000 nM | CSc1cnc(Nc2ccc(C(=O)Nc3cccc(CN4CCOCC4)c3)cc2)nc1-c1ccc(C(F)(F)F)nc1 [Compound 69, 4-[5-Methylsulfanyl-4-(6-trifluoromethyl-pyridin-3-yl)-pyrimidin-2-ylamino]-N-(3-morpholin-4-ylmethyl-phenyl)-benzamide]
5 | < 100 nM | < 100 nM | 100 to 1000 nM | COc1cnc(Nc2ccc(C(=O)Nc3cc(CN4CCN(C)CC4)ccc3C)cc2F)nc1-c1ccc(OC(F)(F)F)cc1 [Compound 62, 3-Fluoro-4-[5-methoxy-4-(4-trifluoromethoxy-phenyl)-pyrimidin-2-ylamino]-N-[2-methyl-5-(4-methyl-piperazin-1-ylmethyl)-phenyl]-benzamide]
6 | 100 to 1000 nM | 100 to 1000 nM | 100 to 1000 nM | CSc1cnc(Nc2ccc(C(=O)Nc3c(C)cccc3C)cc2)nc1-c1ccc(C#N)cc1 [Compound 2, 4-[4-(4-Cyano-phenyl)-5-methylsulfanyl-pyrimidin-2-ylamino]-N-(2,6-dimethyl-phenyl)-benzamide]
7 | 100 to 1000 nM | < 100 nM | 100 to 1000 nM | CSc1cnc(Nc2ccc(C(=O)Nc3cc(CN4CCCCC4)ccc3C)cc2)nc1-c1ccc(C(F)(F)F)cc1 [Compound 28, N-(2-Methyl-5-piperidin-1-ylmethyl-phenyl)-4-[5-methylsulfanyl-4-(4-trifluoromethyl-phenyl)-pyrimidin-2-ylamino]-benzamide]
8 | < 100 nM | < 100 nM | < 100 nM | CSc1cnc(Nc2ccc(C(=O)Nc3cccc(CN4CCOCC4)c3)cc2F)nc1-c1ccc(OC(F)(F)F)cc1 [Compound 44, 3-Fluoro-4-[5-methylsulfanyl-4-(4-trifluoromethoxy-phenyl)-pyrimidin-2-ylamino]-N-(3-morpholin-4-ylmethyl-phenyl)-benzamide]
9 | < 100 nM | < 100 nM | < 100 nM | CSc1cnc(Nc2ccc(C(=O)Nc3cc(CN4CCOCC4)ccc3C)cc2)cc1-c1ccc(OC(F)(F)F)cc1 [Compound 81, N-(2-Methyl-5-morpholin-4-ylmethyl-phenyl)-4-[5-methylsulfanyl-4-(4-trifluoromethoxy-phenyl)-pyridin-2-ylamino)-benzamide]
10 | < 100 nM | < 100 nM | 100 to 1000 nM | COc1cccc(C)c1NC(=O)c1ccc(Nc2ncc(SC)c(-c3cccnc3F)n2)c(F)c1 [Compound 15, 3-Fluoro-4-[4-(2-fluoro-pyridin-3-yl)-5-methylsulfanyl-pyrimidin-2-ylamino]-N-(2-methoxy-6-methyl-phenyl)-benzamide]
11 | < 100 nM | < 100 nM | 100 to 1000 nM | CSc1cnc(Nc2ccc(C(=O)Nc3cc(CN4CCCCC4)ccc3C)cc2)nc1-c1ccc(F)cc1 [Compound 48, 4-[4-(4-Fluoro-phenyl)-5-methylsulfanyl-pyrimidin-2-ylamino]-N-(2-methyl-5-piperidin-1-ylmethyl-phenyl)-benzamide]
12 | < 100 nM | < 100 nM | 100 to 1000 nM | CCN(CC)Cc1ccc(C)c(NC(=O)c2ccc(Nc3ncc(OC)c(-c4ccc(OC(F)(F)F)cc4)n3)c(F)c2)c1 [Compound 61, N-(5-Diethylaminomethyl-2-methyl-phenyl)-3-fluoro-4-[5-methoxy-4-(4-trifluoromethoxy-phenyl)-pyrimidin-2-ylamino]-benzamide]
13 | 100 to 1000 nM | < 100 nM | 100 to 1000 nM | COc1cnc(Nc2ccc(C(=O)Nc3cc(CN4CCNCC4)ccc3C)cc2F)nc1-c1ccc(F)cc1 [Compound 80, 3-Fluoro-4-[4-(4-fluoro-phenyl)-5-methoxy-pyrimidin-2-ylamino]-N-(2-methyl-5-piperazin-1-ylmethyl-phenyl)-benzamide]
14 | < 100 nM | < 100 nM | 100 to 1000 nM | COc1ccc(CN2CCOCC2)cc1NC(=O)c1ccc(Nc2ncc(SC)c(-c3ccc(OC(F)(F)F)cc3)n2)c(F)c1 [Compound 58, 3-Fluoro-N-(2-methoxy-5-morpholin-4-ylmethyl-phenyl)-4-[5-methylsulfanyl-4-(4-trifluoromethoxy-phenyl)-pyrimidin-2-ylamino]-benzamide]
15 | 100 to 1000 nM | 100 to 1000 nM | 100 to 1000 nM | CSc1cnc(Nc2ccc(C(=O)Nc3cc(CN4CCNCC4)ccc3C)cc2F)nc1-c1ccc(F)cc1 [Compound 78, 3-Fluoro-4-[4-(4-fluoro-phenyl)-5-methylsulfanyl-pyrimidin-2-ylamino]-N-(2-methyl-5-piperazin-1-ylmethyl-phenyl)-benzamide]
16 | < 100 nM | < 100 nM | < 100 nM | CCOc1cnc(Nc2ccc(C(=O)Nc3cc(CN4CCN(C)CC4)ccc3C)cc2)nc1-c1ccc(F)cc1 [Compound 76, 4-[5-Ethoxy-4-(4-fluoro-phenyl)-pyrimidin-2-ylamino]-N-[2-methyl-5-(4-methyl-piperazin-1-ylmethyl)-phenyl]-benzamide]
17 | < 100 nM | < 100 nM | < 100 nM | COc1cnc(Nc2ccc(C(=O)Nc3cc(CN4CCOCC4)ccc3C)cc2)nc1-c1ccc(OC(F)(F)F)cc1 [Compound 38, 4-[5-Methoxy-4-(4-trifluoromethoxy-phenyl)-pyrimidin-2-ylamino]-N-(2-methyl-5-morpholin-4-ylmethyl-phenyl)-benzamide]
18 | < 100 nM | 100 to 1000 nM | 100 to 1000 nM | CSc1cnc(Nc2ccc(C(=O)Nc3ccccc3C)cc2)nc1-c1ccc(OC(F)(F)F)cc1 [Compound 23, 4-[5-Methylsulfanyl-4-(4-trifluoromethoxy-phenyl)-pyrimidin-2-ylamino]-N-o-tolyl-benzamide]
19 | 100 to 1000 nM | 100 to 1000 nM | 100 to 1000 nM | COc1ccc(CN2CCOCC2)cc1NC(=O)c1ccc(Nc2ncc(SC)c(-c3ccc(F)cc3)n2)cc1 [Compound 59, 4-[4-(4-Fluoro-phenyl)-5-methylsulfanyl-pyrimidin-2-ylamino]-N-(2-methoxy-5-morpholin-4-ylmethyl-phenyl)-benzamide]

— patent US10793542B2, “Hetroarylamine compounds for modulating the hedgehog pathway and preparing method and uses thereof” (DEVELOPMENT CENTER FOR BIOTECHNOLOGY, priority 2016, dated 2020)
